Assay results: patent publication US12338264B2, “Crystalline potassium salt of 2-O-α-D-glucosyl-L-ascorbic acid and method for producing the same” (NAGASE VIITA CO., LTD., priority 2019, dated 2025)

Key:
[1] = Hygroscopicity: mass increase on storage at 75.2% relative humidity; assay type: physicochemical; conditions: relative humidity 75.2%; for Increase rate of mass: at room temperature, after storage for 24 hours
Experimental: An experiment was carried out to compare the hygroscopicity of both the hydrous crystalline potassium salt of ascorbic acid 2-glucoside, obtained by the method in the Experiment 1, and the hydrous crystalline sodium salt of ascorbic acid 2-glucoside, obtained by the method described in Patent Literature 10. That is, 0.5 g each of the hydrous crystalline potassium salt of ascorbic acid 2-glucoside and the hydrous crystalline sodium salt of ascorbic acid 2-glucoside were weighted and stored in a desiccator conditioned to 75.2% relative humidity (RH) using saturated salt solution for 24 hours at room temperature. After that, the mass of each was measured, the mass increased by moisture absorption was determined, and the increase rate of mass {(Mass increased by storage)/(Mass at the beginning of storage)×100} (% by mass) was determined.

[2] = pH of 1% by mass aqueous solution; assay type: physicochemical; conditions: dissolved in deionized water
Experimental: 1% by mass of aqueous solution of the crystal obtained in Experiment 1 was prepared and its pH was measured.
A commercially available particulate composition containing anhydrous crystalline ascorbic acid 2-glucoside (product name “Ascofresh” (registered trademark), commercialized by Hayashibara Co., Ltd., Okayama, Japan) and a hydrous crystalline potassium salt of ascorbic acid 2-glucoside, obtained by the method in the Experiment 1 were made into compositions with the ratios by mass ranging from 100:0 to 0:100 as shown in Table 3. Each of the resulting compositions was dissolved in deionized water to give a concentration of 1% by mass, following by measuring the pHs of the resulting solutions.

| Molecule | Increase rate of mass [1] | pH of 1% by mass aqueous solution [2] | Increase rate of mass relative to that of the hydrous crystalline sodium salt of ascorbic acid 2-glucoside ([1]; room temperature, 24 hours) |
| --- | --- | --- | --- |
| hydrous crystalline sodium salt of ascorbic acid 2-glucoside [reference compound] | 15.8 % by mass |  |  |
| O=C1O[C@H]([C@@H](O)CO)C([O-])=C1O[C@H]1O[C@H](CO)[C@@H](O)[C@H](O)[C@H]1O.[K+] [hydrous crystalline potassium salt of ascorbic acid 2-glucoside] | 9.1 % by mass | 12.7 | under 60% |
| O=C1O[C@H]([C@@H](O)CO)C(O)=C1O[C@H]1O[C@H](CO)[C@@H](O)[C@H](O)[C@H]1O [2-O-α-D-Glucosyl-L-ascorbic acid] |  | 2.2 |  |
